Measurements published in patent US6545131B1, “Tissue specific prodrug” (priority 1997, dated 2003).
Like-named read-outs stand apart in the source and are kept apart here.

Legend:
[1] = Clonogenic survival of TSU-Pr1 cells after 72 hours exposure to TG analogs; assay type: cell-based, human; conditions: human; TSU-Pr1, 72 hours exposure; mean (n=5) ± standard error; read-out: LC50 (concentration needed to kill 50% of clonogenic cells)
Procedure: The primary amine-containing thapsigargin analogs of the invention have non-specific toxicity toward cells. This toxicity is measured as the concentration of analog needed to kill 50% of clonogenic cells (LC50). The LC50 of the analogs of the invention is desirably at most 20 μM, preferably at most 5 μM, and more preferably at most 500 nM of analog.
Percentage clonogenic survival of TSU-Pr1 (2×10^5 cells) following 72 hours of exposure to varying concentrations of TG analogs was performed as described in Martikainen et al. Cancer Res., 51, 4693-4700 (1991).
(§1) The IC50 results are mean (n=3)±standard error. The LC50 results are mean (n=5)±standard error. The entry “ND” stands for “not determined”. Clonogenic survival not determined above 10 μM for dBTG. Analogs with −boc have a t-butoxycarbonyl (boc) protected amino group.
The androgen responsive PSA-producing LNCaP and androgen independent PSA non-producing TSU-Pr1 are human prostate cancer lines were obtained from ATCC (Rockville, Md.) and maintained by serial passage in RPMI 1640 media containing 10% fetal calf serum with 100 units/ml penicillin G, and 100 units/ml streptomycin sulfate (antibiotics from M.A. Bioproducts, Walkerville, Md.) as standard media in 5% CO2/95% air at 37° C. The origins and characteristics of the LNCaP and TSU-Pr1 cell lines are described in Horoszewicz, et al., Cancer Res., 43:1809-1818, (1980)and Iizumi, et al., J. Urol, 137: 1304-1306, (1987).

[2] = target: T1, endoplasmic reticulum Ca2+-ATPase (SERCA), SR vesicles from rabbit skeletal muscle (Oryctolagus cuniculus, UniProt P04191); assay: SERCA inhibition: 45Ca2+ uptake to sarcoplasmic reticulum vesicles; assay type: biochemical
T1 construct: sarcoplasmic reticulum (SR) vesicles prepared from rabbit skeletal muscle; from tissue; host or cells: rabbit skeletal muscle sarcoplasmic reticulum vesicles
Procedure: The primary amine-containing thapsigargin analogs of the invention have endoplasmic reticulum Ca^2+-ATPase inhibitory activity. This activity is measured as the concentration of analog needed to inhibit 50% of this ATPase (IC50). The IC50 of the analogs of the invention is desirably at most 500 nM, preferably at most 200 nM, and more preferably at most 50 nM of analog.
The inhibitory potency of thapsigargin and its analogs was determined as the concentration required to produce 50% inhibition (i.e. IC50) of ^45Ca^2+ uptake to sarcoplasmic reticulum (SR) vesicles prepared from rabbit skeletal muscle by the method of De Meis and Hasselbach (J. Biol. Chem., 246: 4759-4763, 1971). The ^45Ca^2+ uptake assay was as described previously (Christensen, et al., FEBS, 335: 345-348, 1993), with the following modifications: 5 μg/ml of SR protein was incubated at 25EC and free Ca^2+ adjusted to 100 nM using 4 min. uptake time. Under these conditions, Ca^2+ could proceed linearly with time for at least 8 minutes. Measurements of Ca^2+ within TSU cells was determined as described previously (Lin et al., The Prostate, 33:201-207, 1997).
as §1

[3] = mean (n=3) ± standard error, 5 μg/ml SR protein, free Ca2+ 100 nM, 4 min uptake, read-out: IC50 (50% inhibition of 45Ca2+ uptake to SR vesicles)

T1 sequence (P04191 1-994 isoform P04191-2): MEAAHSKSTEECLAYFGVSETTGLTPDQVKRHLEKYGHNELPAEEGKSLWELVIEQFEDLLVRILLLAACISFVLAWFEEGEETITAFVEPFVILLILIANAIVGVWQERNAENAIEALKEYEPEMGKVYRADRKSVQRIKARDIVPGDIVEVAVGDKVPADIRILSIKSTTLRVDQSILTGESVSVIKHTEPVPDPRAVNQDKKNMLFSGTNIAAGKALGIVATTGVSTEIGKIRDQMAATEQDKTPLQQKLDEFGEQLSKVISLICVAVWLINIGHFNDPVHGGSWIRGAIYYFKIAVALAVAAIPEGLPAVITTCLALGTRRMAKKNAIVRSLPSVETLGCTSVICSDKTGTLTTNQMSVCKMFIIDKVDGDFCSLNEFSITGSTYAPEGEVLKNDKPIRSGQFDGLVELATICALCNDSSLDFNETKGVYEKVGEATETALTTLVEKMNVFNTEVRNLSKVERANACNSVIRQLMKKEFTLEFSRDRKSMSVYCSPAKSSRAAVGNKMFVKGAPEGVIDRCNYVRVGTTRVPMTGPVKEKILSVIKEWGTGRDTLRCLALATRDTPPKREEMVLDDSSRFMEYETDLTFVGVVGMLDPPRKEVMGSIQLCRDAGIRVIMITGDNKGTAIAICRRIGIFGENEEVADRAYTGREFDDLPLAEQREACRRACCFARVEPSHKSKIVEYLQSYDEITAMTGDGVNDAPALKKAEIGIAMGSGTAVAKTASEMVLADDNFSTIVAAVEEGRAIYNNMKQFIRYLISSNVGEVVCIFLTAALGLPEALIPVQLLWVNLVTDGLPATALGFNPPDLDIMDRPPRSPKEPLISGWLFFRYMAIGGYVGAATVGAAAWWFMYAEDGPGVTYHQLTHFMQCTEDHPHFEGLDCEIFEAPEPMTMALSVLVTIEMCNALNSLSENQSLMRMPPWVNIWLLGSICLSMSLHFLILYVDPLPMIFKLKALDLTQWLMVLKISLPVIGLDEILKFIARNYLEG

| SMILES | CC50 [1] [nM] | IC50 [2, 3] [nM] | IC50 [2] [nM] |
| --- | --- | --- | --- |
| C/C=C(/C)C(=O)O[C@H]1C(C)=C2[C@H]([C@@H]1OC(=O)CCCCCCC)[C@@](C)(OC(C)=O)C[C@H](OC(=O)c1ccc(N)cc1)[C@@]1(O)[C@H]2OC(=O)[C@@]1(C)O [ABT, 8-O-(4-aminobenzoyl)-8-O-debutanoylthapsigargin] | 4000 ± 300 | 18.4 ± 0.3 |  |
| C/C=C(/C)C(=O)O[C@H]1C(C)=C2[C@H]([C@@H]1OC(=O)CCCCCCC)[C@@](C)(OC(C)=O)C[C@H](OC(=O)CCCc1ccc(N)cc1)[C@@]1(O)[C@H]2OC(=O)[C@@]1(C)O [ABuT, 8-O-(4-[4-aminophenyl]butanoyl)-8-O-debutanoylthapsigargin] | 225 ± 20 | 18.4 ± 1.4 |  |
| C/C=C(/C)C(=O)O[C@H]1C(C)=C2[C@H]([C@@H]1OC(=O)CCCCCCC)[C@@](C)(OC(C)=O)C[C@H](OC(=O)CCCc1ccc(NC(=O)OC(C)(C)C)cc1)[C@@]1(O)[C@H]2OC(=O)[C@@]1(C)O [ABuT-boc, 8-O-(4-[4-t-butoxycarbonylaminophenyl]butanoyl)-8-O-debutanoylthapsigargin] |  |  | 14.4 ± 0.8 |
| C/C=C(/C)C(=O)O[C@H]1C(C)=C2[C@H]([C@@H]1OC(=O)CCCCCCC)[C@@](C)(OC(C)=O)C[C@H](OC(=O)/C=C/c1ccc(NC(=O)OC(C)(C)C)cc1)[C@@]1(O)[C@H]2OC(=O)[C@@]1(C)O [ACT-boc, 8-O-(4-t-butoxycarbonylaminocinnamoyl)-8-O-debutanoylthapsigargin] | 1900 ± 100 | 20.3 ± 0.2 |  |
| C/C=C(/C)C(=O)O[C@H]1C(C)=C2[C@H]([C@@H]1OC(=O)CCCCCCC)[C@@](C)(OC(C)=O)C[C@H](OC(=O)CCc1ccc(N)cc1)[C@@]1(O)[C@H]2OC(=O)[C@@]1(C)O [APT, 8-O-(3-[4-aminophenyl]propionyl)-8-O-debutanoylthapsigargin] | 275 ± 60 | 16.2 ± 0.9 |  |
| C/C=C(/C)C(=O)O[C@H]1C(C)=C2[C@H]([C@@H]1OC(=O)CCCCCCC)[C@@](C)(OC(C)=O)C[C@H](OC(=O)CCc1ccc(NC(=O)OC(C)(C)C)cc1)[C@@]1(O)[C@H]2OC(=O)[C@@]1(C)O [APT-boc, 8-O-(3-[4-t-butoxycarbonylaminophenyl]propionyl)-8-O-debutanoylthapsigargin] | 870 ± 15 | 21.2 ± 0.8 |  |
| C/C=C(/C)C(=O)O[C@H]1C(C)=C2[C@H]([C@@H]1OC(=O)CCCCCCC)[C@@](C)(OC(C)=O)C[C@H](OC(=O)CCCC(=O)Nc1ccc(C)c(N)c1)[C@@]1(O)[C@H]2OC(=O)[C@@]1(C)O [GDT, 8-O-{4-(N-[3-amino-4-methylphenyl]-carboxamido)butanoyl}-8-O-debutanoylthapsigarg in] | 16600 ± 400 | 316 ± 23 |  |
| C/C=C(/C)C(=O)O[C@H]1C(C)=C2[C@H]([C@@H]1OC(=O)CCCCCCC)[C@@](C)(OC(C)=O)C[C@H](OC(=O)CCCCCC(=O)Nc1ccc(C)c(N)c1)[C@@]1(O)[C@H]2OC(=O)[C@@]1(C)O [PDT, 8-O-{6-(N-[3-amino-4-methylphenyl]-carboxamido)hexanoyl}-8-O-debutanoylthapsigargin] | 3100 ± 200 | 17.7 ± 2.4 |  |
| C/C=C(/C)C(=O)O[C@H]1C(C)=C2[C@H]([C@@H]1OC(=O)CCCCCCC)[C@@](C)(OC(C)=O)C[C@H](OC(=O)CCC(=O)Nc1ccc(C)c(N)c1)[C@@]1(O)[C@H]2OC(=O)[C@@]1(C)O [SDT, 8-O-{3-(N-[3-amino-4-methylphenyl]-carboxamido)propanoyl}-8-O-debutanoylthapsigargin] | > 25000 | 1280 ± 91 |  |
